Data set [1] deals with rats with scopolamine-induced deficits. Description: Passive avoidance in rats, scopolamine-induced amnesia. It is filed as in vivo, rat. Here is the method: The protocol summarized below is one of many variants of the passive avoidance procedure using scopolamine-induced amnesia (for review see Rush, Behav Neural Biol 50:255-274, 1988). This procedure is commonly used to identify drugs that may be useful in treating cognitive deficits, particularly those observed in AD. The effects of the D
Testing was conducted in standard 2-compartment rectangular passive avoidance chambers (San Diego Instruments, San Diego, Calif.) with black plexiglas sides and grid floors. The light compartment of the chambers were illuminated by a 20 W lamp located in this compartment; the dark side of the chambers will be shielded from light, except for light penetrating the opening connecting the two compartments of each chamber.
On training day, groups of 8 rats were injected with scopolamine (3.0 mg/kg, ip) or vehicle (1.0 ml/kg) 30 min prior to training. Scopolamine served as the dementing agent in this experiment. Ten min prior to training, each group of rats received a second injection of vehicle or a dose of DHX. At the end of the pretreatment interval, each rat was placed individually in the light compartment facing away from the opening between compartments. The latency for each rat to travel from the light to the dark compartment was measured up to a maximum of 300 sec; any animal not entering the dark compartment within 300 sec was discarded from the test group. Once the animal entered the dark compartment completely, a 1.0 milliampere, 3.0 sec scrambled shock was delivered to the entire grid floor. The animal was allowed to remain in the dark compartment during this 3.0 sec period or to escape to the light compartment. Each rat was then returned immediately to its home cage.
Twenty-four hr after training, each rat was tested in the same apparatus for retention of the task (to remain passively in the light compartment). […] The latency for animals to enter the dark compartment on test day (step-through latency) was recorded up to a maximum of 600 sec. Each animal was used only once in a single experiment.
A one-way analysis of variance (ANOVA) and Newman-Keuls post-hoc comparisons were used to identify significant deficits in passive avoidance responding produced by scopolamine and their reversal by DHX; a p value of less than 0.05 was used as the level of significance.

The next data set addresses T1, D1A receptor (C-6-mD1A) (Macaca mulatta, UniProt O77680).
T1 construct: expressed in transfected cells; host or cells: C-6 glioma cells
Kind of data set: Binding, cloned D1A receptor in C-6 cells. The arrangement: species or system monkey (rhesus macaque). To be noted: monkey receptor, read-out: Cloned Receptors D1A C-6 (monkey).

The target in data set [2] is 40 binding sites (other than the D1 site). Kind of data set: Screen for activity at 40 binding sites. To be noted: 40 binding sites other than D1, all except D2 and alpha2 adrenergic; read-out: IC50 at binding sites found inactive. The text has this: (§1) […]. […] […].
The target in data set [3] is alpha2 adrenergic receptors. Kind of data set: Binding site screen, alpha2 adrenergic receptors.
Source text: as §1

The test system of another data set is adenylate cyclase. Kind of data set: Stimulation of adenylate cyclase in brain tissue. It is filed as biochemical. To be noted: rat, monkey, and human brain tissue.
Source text: as §1

For data set [4], the system named is dopamine release or reuptake. Description: Dopamine release and reuptake.
Source text: as §1

A short description of data set [5]: Half-life and duration of functional activity. It is filed as in vivo.
The test system of data set [6] is acetylcholine release in striatum and frontal cortex. Kind of data set: Acetylcholine release by in vivo microdialysis in conscious, freely-moving rats. Also noted: species or system rat.
The next data set has as its system MPTP-treated monkeys. Description: Cognitive deficits in chronic low dose MPTP-treated monkeys, delayed response task. The data set is classed as in vivo, monkey. An excerpt: Two adult male Macaca fascicularis monkeys (4.7 and 5.7 kg initial body weight) and 1 female Macaca nemistrina monkey (5.0 kg initial body weight) were trained to perform a delayed response task. Briefly, animals were trained and tested on delayed response while seated in a restraining chair placed inside a sound attenuating modified Wisconsin General Test Apparatus. The monkey sat behind an opaque screen that when raised, allowed access to a sliding tray that contained recessed food wells with identical sliding white Plexiglas covers that served as stimulus plaques that could be displaced by the animal to obtain rewards (e.g. raisins). Monkeys were trained to retrieve a raisin from one of the food wells after observing the experimenter bait the well. […]
Training was accomplished with a non-correction procedure, beginning with a 0 s delay and progressing to a 5 s delay. […] A response was scored a “mistake” if the monkey made its response choice to a well that was not baited with reward. […]
Compounds and/or compositions described herein are tested by dissolving in physiological saline containing 0.2% ascorbate and administering subcutaneously. Ilustratively, compounds and/or compositions described herein are used at 0.3, 0.6, and 0.9 mg/kg doses, calculated as the free base where appropriate. The order of dose administration is determined randomly. […]

Data set [7] can be described thus: Pharmacokinetic studies in rodents and non-human primates. The data set is classed as in vivo. The text has this:
[…]. […] […]

A further data set has as its system monkeys. To be noted: young, intact monkeys; cited from earlier work.
The next data set has as its target D3 receptor (Rattus norvegicus, UniProt P19020). Kind of data set: biochemical.
A further data set addresses T2, D4 receptor (Rattus norvegicus, UniProt P30729).
T2 sequence (P30729 1-387): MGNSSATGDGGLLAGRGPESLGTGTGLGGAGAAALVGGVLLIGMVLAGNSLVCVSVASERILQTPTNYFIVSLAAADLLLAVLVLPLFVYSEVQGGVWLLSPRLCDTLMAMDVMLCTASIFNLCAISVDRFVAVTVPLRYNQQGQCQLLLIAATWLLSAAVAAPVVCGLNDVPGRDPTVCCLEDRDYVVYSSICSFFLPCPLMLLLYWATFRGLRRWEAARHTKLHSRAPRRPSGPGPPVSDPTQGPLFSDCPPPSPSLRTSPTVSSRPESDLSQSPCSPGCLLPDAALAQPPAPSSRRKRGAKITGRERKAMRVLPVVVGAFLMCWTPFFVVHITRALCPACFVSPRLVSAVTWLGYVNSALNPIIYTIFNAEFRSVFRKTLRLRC
Kind of data set: Binding, cloned D4 receptor in CHO cells. To be noted: read-out: Cloned Receptors D4 CHO (rat). The arrangement: expressed in transfected cells; host or cells: CHO cells.

Each structure is given as a SMILES string.

We go through 1 compound from US20070155720A1, “Co-administration of dopamine-receptor binding compounds” (DarPharma, Inc., priority 2003, published 2007).

T1 sequence (O77680 whole entry): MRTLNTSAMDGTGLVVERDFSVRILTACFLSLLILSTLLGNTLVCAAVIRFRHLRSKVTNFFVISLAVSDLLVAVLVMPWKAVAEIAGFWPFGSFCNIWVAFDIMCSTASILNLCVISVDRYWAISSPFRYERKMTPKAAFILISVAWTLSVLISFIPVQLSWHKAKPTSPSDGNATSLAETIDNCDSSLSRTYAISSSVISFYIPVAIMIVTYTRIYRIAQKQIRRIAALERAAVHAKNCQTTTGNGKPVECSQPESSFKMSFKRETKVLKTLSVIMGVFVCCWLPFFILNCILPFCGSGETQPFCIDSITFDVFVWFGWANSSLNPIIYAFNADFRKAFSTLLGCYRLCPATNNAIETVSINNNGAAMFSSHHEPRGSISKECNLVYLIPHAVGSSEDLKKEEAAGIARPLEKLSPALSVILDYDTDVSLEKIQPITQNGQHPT
Chain of D3 receptor (P19020 whole entry): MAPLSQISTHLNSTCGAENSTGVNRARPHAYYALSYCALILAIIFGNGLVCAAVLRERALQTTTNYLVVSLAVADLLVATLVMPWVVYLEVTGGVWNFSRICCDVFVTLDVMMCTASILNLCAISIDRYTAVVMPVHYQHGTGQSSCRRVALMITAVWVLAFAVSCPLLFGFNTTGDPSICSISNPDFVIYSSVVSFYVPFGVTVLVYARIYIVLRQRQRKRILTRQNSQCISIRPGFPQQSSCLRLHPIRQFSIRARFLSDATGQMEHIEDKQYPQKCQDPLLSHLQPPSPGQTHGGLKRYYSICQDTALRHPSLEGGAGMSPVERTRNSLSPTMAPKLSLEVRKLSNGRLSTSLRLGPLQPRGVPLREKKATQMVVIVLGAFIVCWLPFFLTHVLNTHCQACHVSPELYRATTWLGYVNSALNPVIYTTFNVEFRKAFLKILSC
Experimental for D1A receptor (C-6-mD1A): Cells were grown in DMEM-H medium containing 4,500 mg/l glucose, L-glutamine, 5% fetal bovine serum and 600 ng/ml G418. […] Cells were plated into 24-well plates and allowed to grow to confluence (usually 2-4 days), after which they were used for either dose-response or desensitization studies. For the binding studies, 75-cm^2 flasks of confluent cells were treated as described below. All studies (functional and receptor binding) used cells from passages 2 to 20.
Flasks of cells in the same passage were rinsed with 5 ml hypoosmotic buffer (1 mM HEPES, 2 mM EGTA, pH 7.4), and then incubated with 7 ml hypoosmotic buffer for 5 to 10 min at 4° C. Cells were then scraped off the bottom of the flask with a rubber policeman, collected into 50-ml tubes and centrifuged at 28,000×g at 4° C. for 20 min. […] Aliquots contained approximately 1 mg/ml of protein, as measured with the BCA protein assay reagent (Pierce, Rockford, Ill.). […]
For dose-response studies, data were calculated for each sample and expressed initially as pmol cAMP per mg protein per min. […] Normalized dose-response curves were analyzed by nonlinear regression with an algorithm for sigmoid curves in the curve-fitting program Prism (Graphpad Inc., San Diego, Calif.). […] For competition binding studies, the raw data (expressed in dpm) were analyzed by nonlinear regression with a sigmoid dose-response model in Prism. […]

Take `Cl.Oc1cc2c(cc1O)[C@@H]1c3ccccc3CN[C@H]1CC2` (relative stereo) [Compound 6a, Trans-10,11-dihydroxy-5,6,6a,7,8,12b-hexahydrobenzo[a]phenanthridine hydrochloride]: the “Shape of dose-response curve in passive avoidance” value in [1] is recorded as “inverted U-shaped dose-response curve”. For the same compound, the “Scopolamine-induced deficits in step-through latency” value in data set [1] (dose of 0.3 mg/kg, scopolamine 3.0 mg/kg ip) is “significantly improved”. Also, the “Increase in step-through latency” value in [1] (doses of 0.1 and 1.0 mg/kg, scopolamine 3.0 mg/kg ip) was “not statistically-significant”. Moreover, in [1] (narrow range of doses (0.1, 0.3, and 1.0 mg/kg ip)), the “Deficits induced by scopolamine” value is reported as “significantly improved”. Also, the Ki at D1A receptor (C-6-mD1A) turned out to be 2.2 nM; at D3 receptor it was 18 nM; on D4 receptor it was 13 nM. The IC50 – broadly, the concentration at which inhibition is half-maximal – is more than 10000 nM in [2] and approximately 230 nM in data set [3]. Also, the “Efficacy in stimulating adenylate cyclase in brain tissue” value in the data set with adenylate cyclase was “full efficacy”. Besides, the “Releasing dopamine or blocking its reuptake” value in data set [4] was “inactive”. Moreover, in [5] (given subcutaneously), the Functional half-life result was “about 3 hr”. In data set [5] (in vivo, iv, given intravenously, read-out: Half-life), the half-life (in general, the time needed for the level to fall by half in the phase considered) is approximately 30 min. For the same compound, in data set [6], the Acetylcholine release entry was “dose-related increases”. Also, the “Cognitive deficits produced by chronic low dose MPTP treatment” value in the data set on MPTP-treated monkeys was “improve cognitive deficits”. The Clearance from plasma result in [7] (in vivo) was “cleared rapidly”. In addition, the Blood levels result in data set [7] (rodents and non-human primates, following iv, sc and po administration) is on record as “significant blood levels”. Besides, in the data set on monkeys, the Spatial working memory entry was “produced improvements”.
